From patent US20070004634A1 (Novo Nordisk A/S, priority 1998, published 2007) come the findings set out here.

Assay [1] has as its system MCF-7 cells. The following applies: MCF-7 cell proliferation, antagonist effect.
Assay [2] concerns MiaPaCa cells. Nature of the assay: MiaPaCa cell proliferation assay, IGF-1R agonist format. The assay is classed as cell-based, human. Conditions: MiaPaCa cell proliferation, agonist effect.
In assay [3] the target is T1, IGF-1R (Homo sapiens, UniProt P08069). Nature of the assay: TR-FRET dissociation of biotinylated-20E2 from rhIGF-1R. Format: binding. The following applies: peptides 100 μM, IGF-1 30 μM. How it is done: Best fit non-linear regression analysis of the data, was used to determine dissociation rate constants. Each data point represents a single observation. […] Reactions were allowed to reach equilibrium for 6 h at RT.

The subject of assay [4] is FDC-P2 cells expressing the IL-3 and human IGF-1R receptors. Nature of the assay: IGF-1 proliferation assay in FDC-P2 cells, agonist format. The following applies: for agonist activity at IGF-1R, in words: FDC-P2 cells.
In assay [5] the test system is MiaPaCa cells. The following applies: MiaPaCa cell proliferation, antagonist effect.
Assay [6] has as its system FDC-P2 cells expressing the IL-3 and human IGF-1R receptors. In words: IGF-1 proliferation assay in FDC-P2 cells, antagonist format. Conditions: for FDC-P2 Antagonist: FDC-P2 cell proliferation, antagonist effect; for EC50: read-out: ED50, antagonist activity at IGF-1R, 10 ng/ml IGF-1 test medium.
The target of assay [7] is T2, soluble human insulin receptor-immunoglobulin heavy chain chimera (sIR-Fc) (Homo sapiens, UniProt P06213).
T2 construct: replacing the transmembrane domain and the intracellular domain of IR with constant domains from immunoglobulin Fc or λ subunits; made in house; host or cells: human embryonic kidney 293 cells (Bass et al.)
Nature of the assay: TR-FRET competition with biotinylated RP9 (b-RP9) for sIR-Fc. The assay is classed as binding. Conditions: Hill slope; target sIR-Fc; label b-RP9; TR-FRET.

Assay [8] relates to free fat cells (adipocytes). In words: Adipocyte / free fat cell (FFC) assay, 3H glucose incorporation into lipid.
Assay [9] addresses T2, soluble human insulin receptor-immunoglobulin heavy chain chimera (sIR-Fc). In words: TR-FRET competition with biotinylated S175 (b-S175) for sIR-Fc. The assay is classed as binding. The following applies: Hill slope, target sIR-Fc, label b-S175. (TR-FRET usually uses a lanthanide donor and a delayed reading to cut background.)
Assay [10] has as its target T1, IGF-1R. Nature of the assay: TR-FRET competition with biotinylated-20E2 for rhIGF-1R. The following applies: TR-FRET (rhIGF-1R, b-20E2) versus FP (sIR-Fc), summary of Table 22.
For assay [11], the target named is T1, IGF-1R. Nature of the assay: Phage competition ELISA on IGF-1R. Format: binding. The following applies: phage RP9, RP6, D8B12, D815. Details: included the heterotetrameric (alpha 2-beta 2) extracellular domain of IGF-1R; purchased R&D Systems 391-GR/CF; host or cells: mouse myeloma cell line. How it is done: Wells were blocked with 4% non-fat milk in PBS for 60 min at room temperature. One hundred microliters of rescued phage were added to each well. […] The labeled antibody was incubated at room temperature for 60 min. After washing, 100 μl of ABTS was added per well and the plates read in a microtiter reader at […]. […] (Site 2). Peptides included RP9 and […]. Phage competition studies were also performed with Site 2-Site 1 dimer peptides containing 6- or 12-amino acid linkers. […] Wells were blocked with 4% non-fat milk in PBS for 60 min at room temperature. One hundred microliters of rescued phage were added to each well. Peptides in varying concentrations were added and the mixture incubated for 2 h at room temperature. […] The labeled antibody was incubated for 60 min at room temperature. After washing, 100 μl of ABTS was added per well and the plates read in a microtiter reader at […]. […] Linker sequences are underlined and shown below.
Background: An ELISA detects its analyte on a solid surface through an enzyme-linked reagent.

In assay [12] the target is T2, soluble human insulin receptor-immunoglobulin heavy chain chimera (sIR-Fc). In words: Fluorescence polarization, competition with FITC-RP9 for sIR-Fc. Format: binding. (In general: In fluorescence polarisation assays a small probe gives low polarisation when free and higher when bound to something large.)
Assay [13] relates to MCF-7 cells. In words: MCF-7 cell proliferation assay, IGF-1R agonist format. The assay is classed as cell-based, human. Conditions: MCF-7 cell proliferation, agonist effect. The source says: ; FIGS. 65A-65F), and were used for subsequent experiments.
Assay [14] deals with T3, soluble HIR ectodomain (sIR) (Homo sapiens, UniProt P06213).
T3 construct: soluble HIR ectodomain (sIR); Kristensen et al., 1998
Nature of the assay: Fluorescence polarization, competition with FITC-RP9 for sIR. The following applies: Hill slope, target sIR, label FITC-RP9. Format: binding.

For assay [15], the target named is T4, Insulin receptor (Homo sapiens, UniProt P06213).
T4 construct: replacing the transmembrane domain and the intracellular domain of IR with constant domains from immunoglobulin Fc or λ subunits; made in house; host or cells: human embryonic kidney 293 cells (Bass et al.)
Nature of the assay: BIAcore competition, IR binding to immobilized insulin. How it is done:
Flowcell-1 was used for background binding to correct for any non-specific binding. […] The surface was regenerated with 25 mM NaOH.

Residues, ends and D or L forms follow the SMILES beside them.

T1 sequence (P08069 31-736 limits assumed): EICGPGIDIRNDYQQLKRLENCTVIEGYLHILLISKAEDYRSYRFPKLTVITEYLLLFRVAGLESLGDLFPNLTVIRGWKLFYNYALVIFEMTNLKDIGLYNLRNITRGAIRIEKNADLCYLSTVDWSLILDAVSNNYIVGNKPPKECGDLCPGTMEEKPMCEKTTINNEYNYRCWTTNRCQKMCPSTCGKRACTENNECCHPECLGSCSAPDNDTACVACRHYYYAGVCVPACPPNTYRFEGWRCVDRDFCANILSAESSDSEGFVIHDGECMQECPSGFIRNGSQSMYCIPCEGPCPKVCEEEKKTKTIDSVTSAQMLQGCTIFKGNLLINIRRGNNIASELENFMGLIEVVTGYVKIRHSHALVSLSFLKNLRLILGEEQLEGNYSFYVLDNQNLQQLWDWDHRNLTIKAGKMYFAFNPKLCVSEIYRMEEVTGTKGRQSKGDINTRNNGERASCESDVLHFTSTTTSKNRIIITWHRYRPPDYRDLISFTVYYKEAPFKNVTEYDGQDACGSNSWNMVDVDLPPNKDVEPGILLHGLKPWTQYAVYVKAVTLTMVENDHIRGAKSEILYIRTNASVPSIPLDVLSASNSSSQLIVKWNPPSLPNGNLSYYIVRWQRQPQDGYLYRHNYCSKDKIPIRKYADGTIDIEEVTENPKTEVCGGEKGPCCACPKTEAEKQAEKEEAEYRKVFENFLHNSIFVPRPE
T1 sequence (P08069 741-935 limits assumed): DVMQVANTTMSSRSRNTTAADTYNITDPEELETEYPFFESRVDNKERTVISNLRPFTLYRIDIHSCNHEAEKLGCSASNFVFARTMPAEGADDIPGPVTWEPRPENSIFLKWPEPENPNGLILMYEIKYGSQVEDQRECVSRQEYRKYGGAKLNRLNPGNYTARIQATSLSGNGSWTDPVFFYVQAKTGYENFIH
T2 sequence (P06213 28-758 limits assumed, stated change not applied): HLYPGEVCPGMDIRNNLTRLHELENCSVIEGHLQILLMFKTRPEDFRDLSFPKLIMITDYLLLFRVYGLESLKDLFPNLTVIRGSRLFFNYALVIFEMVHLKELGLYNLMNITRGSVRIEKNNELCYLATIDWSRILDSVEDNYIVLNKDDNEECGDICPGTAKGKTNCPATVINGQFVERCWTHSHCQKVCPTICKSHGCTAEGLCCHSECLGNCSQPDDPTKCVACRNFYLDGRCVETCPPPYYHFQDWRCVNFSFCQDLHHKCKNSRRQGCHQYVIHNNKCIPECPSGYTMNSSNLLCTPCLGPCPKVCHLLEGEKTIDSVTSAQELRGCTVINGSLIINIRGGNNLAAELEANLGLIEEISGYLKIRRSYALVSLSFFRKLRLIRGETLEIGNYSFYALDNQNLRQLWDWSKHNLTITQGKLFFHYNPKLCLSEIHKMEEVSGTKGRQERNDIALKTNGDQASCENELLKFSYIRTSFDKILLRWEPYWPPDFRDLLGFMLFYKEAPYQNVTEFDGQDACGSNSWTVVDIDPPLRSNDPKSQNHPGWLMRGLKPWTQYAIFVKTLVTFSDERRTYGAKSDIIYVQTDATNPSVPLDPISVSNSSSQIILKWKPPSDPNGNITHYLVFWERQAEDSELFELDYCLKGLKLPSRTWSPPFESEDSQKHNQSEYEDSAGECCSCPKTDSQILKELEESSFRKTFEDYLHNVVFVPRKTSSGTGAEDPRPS
T2 sequence (P06213 763-956 limits assumed, stated change not applied): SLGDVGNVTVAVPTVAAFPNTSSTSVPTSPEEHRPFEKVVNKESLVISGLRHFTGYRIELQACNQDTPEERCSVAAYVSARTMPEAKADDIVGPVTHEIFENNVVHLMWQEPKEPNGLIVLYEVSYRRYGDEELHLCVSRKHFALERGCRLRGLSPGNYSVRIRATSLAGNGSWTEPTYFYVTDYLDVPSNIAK
T4 sequence (P06213 28-758 limits assumed): as the sequence (P06213 28-758 limits assumed, stated change not applied) above
T4 sequence (P06213 763-956 limits assumed): as the sequence (P06213 763-956 limits assumed, stated change not applied) above
T3 sequence (P06213 28-758 limits assumed): as the sequence (P06213 28-758 limits assumed, stated change not applied) above
T3 sequence (P06213 763-956 limits assumed): as the sequence (P06213 763-956 limits assumed, stated change not applied) above

Consider `CC(C)C[C@H](NC(=O)[C@H](CS)NC(=O)[C@H](CO)NC(=O)[C@H](Cc1ccc(O)cc1)NC(=O)[C@H](Cc1ccccc1)NC(=O)[C@@H](N)[C@@H](C)O)C(=O)N[C@@H](C)C(=O)N[C@@H](CO)C(=O)N[C@@H](CC(C)C)C(=O)N[C@@H](CC(C)C)C(=O)N[C@H](C(=O)NCC(=O)N[C@H](C(=O)N1CCC[C@H]1C(=O)N[C@@H](CCC(N)=O)C(=O)N1CCC[C@H]1C(=O)N[C@@H](CC(N)=O)C(=O)N[C@@H](CCCNC(=N)N)C(=O)NCC(=O)N1CCC[C@H]1C(=O)N[C@@H](Cc1c[nH]c2ccccc12)C(=O)N[C@@H](CCC(=O)O)C(=O)N[C@@H](CCCNC(=N)N)C(=O)N[C@@H](CS)C(=O)N[C@@H](CCCNC(=N)N)C(=O)O)[C@@H](C)O)[C@@H](C)O` [RP6] (H-TFYSCLASLLTGTPQPNRGPWERCR-OH; N-terminus and C-terminus assumed), for which the “MCF-7 Antagonist” value in assay [1] is “+”. Moreover, the “MiaPaCa Agonist” value in assay [2] is recorded as “No”. In assay [3], the “effect on the rate of dissociation of b-20E2 from IGF-1R” value is given as “dissociation rates of b-20E2 were similar”. Besides, the “agonist activity at IGF-1R, in words” value in assay [4] is recorded as “no agonist activity”. The “MiaPaCa Antagonist” value in assay [5] is “No”. Also, the “FDC-P2 Antagonist” value in assay [6] was “+”. In [6] (FDC-P2 cells), the “antagonist activity at IGF-1R, in words” value is “acted as an antagonist” and the EC50 was roughly 1 µM.
Turning to GSLDESFYDWFERQLGKK [Peptide S371], the “MCF-7 Antagonist” value in assay [1] is on record as “No”. In addition, the “Hill, sIR-Fc, b-RP9, FRET” value in assay [7] is listed as −0.69. For the same compound, the FFC result in assay [8] (FFC assay potency grade, 0, + to ++++++, −) is given as “+”; in assay [8] (Table 5, free fat cell assay), “+”; in [8] (Table 6, free fat cell assay), “+”. Further, in assay [2], the “MiaPaCa Agonist” value is given as “No”. For the same compound, the “Hill, sIR-Fc, b-S175, FRET” value in assay [9] is reported as −0.45. The “binding to IGF-1R compared with IR, in words” value in assay [10] is recorded as “lower binding ratios for IGF-1R over IR”. In addition, in assay [4], the “agonist activity at IGF-1R, in words” value is reported as “no agonist activity”. Besides, the Class entry in assay [4] (IGF-1R agonist or antagonist) is listed as “N”. In assay [5], the “MiaPaCa Antagonist” value was “No”. In addition, in [11], the “competition of Site 1 and Site 2 phage on IGF-1R” value is “competed both Site 1 and Site 2 phage”. Moreover, the “potency / affinity at IR, in words” value in [12] (FP with FITC-RP9, summary of Table 22) is recorded as “slightly less potent”. Moreover, in [12] (Hill slope, target sIR-Fc, label FITC-RP9, fluorescence polarization), the “Hill, sIR-Fc, FITC-RP9, FP” value is recorded as −0.41. The “MCF-7 Agonist” value in [13] is on record as “No”. Also, in [14], the “Hill, sIR, FITC-RP9, FP” value is listed as −0.29. For the same compound, in assay [6], the “FDC-P2 Antagonist” value is “+”. In addition, the EC50 in assay [6] (FDC-P2 cells) was roughly 7 µM.
With KWLDQEWAWVQCEVYGRGCPSKK [Peptide D8], in assay [15] (Table 13, peptide about 40 μM, IR 450 nM, IR alone 100), the “% Binding” value stood at 33%.
Take “maltose binding protein [MBP, reference compound]”: the “Result (RUs)” value in assay [15] (Table 12, IR 450 nM pre-incubated with insulin […], A7 (20A4)-MBP 4.1 μM, D8-MBP […], D10-MBP 3.4 μM, 447-MBP 11.5 μM or MBP 13 μM, IR alone 220 RU) is given as 209 RUs.
